Measurements: patent US20110016579A1, “Gene of transporter selective to mugineic acid-iron complex” (SUNTORY LIMITED, priority 2005, published 2011)

Assays:
HvYS1 [1] = assay: Growth of fet3fet4 yeast (DDY4 strain) expressing HvYS1 on different iron sources; assay type: cell-based, barley (Hordeum vulgare L.); conditions: 30° C., 4 days
Text: Since DDY4 strain is an yeast that is defective in the divalent iron-absorption system, is unable to grow in an iron-limiting medium (Eide, D. et al., Proc. Natl. Acad. Sci. USA, 1996, vol. 93, pp. 5624-5628) and is unable to grow by taking advantage of mugineic acid-iron (III) complex (Loulergue, C., Gene 1998, vol. 225, pp. 47-57), the yeast having an activity power for selectively absorbing mugineic acid-iron complex can grow on a medium supplemented with mugineic acid-iron(III) complex but the yeast having no above-mentioned activity power cannot grow on the medium.
(§1) Since double mutant fet3fet4 (DDY4 strain) of budding yeast (Saccharomyces cerevisiae) is defective in two genes responsible for absorption of divalent iron (fet3 (a gene for absorbing divalent iron after converting trivalent iron into divalent iron) and fet4 (a gene for absorbing divalent iron as it is)), the yeast can grow neither on an iron-limiting medium (Eide, D. et al., Proc. Natl. Acad. Sci. USA, 1996, vol. 93, pp. 5624-5628) nor by taking advantage of iron complexed with mugineic acid (Loulergue, C., Gene, 1998, vol. 225, pp. 47-57). To investigate the function of HvYS1 in iron transport, the present inventors have studied, using DDY4 strain into which HvYS1 cDNA has been introduced, whether the DDY4 strain in which the gene is expressed is able to grow on a medium containing Fe(III).MA as sole source of iron.
(§2) The following three plasmids were independently introduced into each of DDY4 strain and DY1457 (wild) strain: (1) a plasmid into which HvYS1 cDNA cloned at the NotI site of the expression vector pFL61 (by ATCC Co.) was inserted; (2) a plasmid into which ZmYS1 cDNA (Curie, C. et al., Nature, 2001, vol. 49, pp. 346-349) cloned in the same pFL61 vector was inserted; and (3) the pFL61 vector as a reference into which none of the above-mentioned genes was inserted.
Subsequently, the inventors conducted cultivation tests by mixing three different iron sources, or Fe(III).citrate, Fe(III).MA, and Fe(III).NA, with the medium in order to determine substrate selectivity, if any, of HvYS1. The yeast was cultivated in minimum media—Ura supplemented with 50 μM Fe(III).citrate, 10 μM Fe(III).MA, or 10 μM Fe(II).NA, and 10 μM FeCl2 or FeCl3 as a blank. Also, 10 μM of BPDS that is a potent chelating agent of divalent iron was added to the medium supplemented with 10 μM of Fe(III).MA in order to investigate whether the growth of the yeast is inhibited. Fe(III).MA was prepared according to von Wiren, N. et al. , Biochem. Biophys. Acta, 1998, vol. 1371, pp. 143-155. Nicotinamine was purchased from T. Hasegawa Co., and Fe(II).NA was prepared according to Schaaf, G. et al. , J. Biol. Chem., 2004, vol. 279, pp. 9091-9096. The yeast was cultivated at 30° C. for 4 days. Three solutions of the yeast culture (diluted to optical densities (OD) of 0.2, 0.02 and 0.002, respectively, at a wavelength of 600 nm) were spotted on a plate.

ZmYS1 = target: T1, ZmYS1 (Zea mays, UniProt Q9AY27); assay: Growth of fet3fet4 yeast (DDY4 strain) expressing ZmYS1 on different iron sources; assay type: cell-based, maize; conditions: DDY4 strain expressing ZmYS1, 10 μM, FIG. 3
T1 construct: expressed in transfected cells; host or cells: Saccharomyces cerevisiae fet3fet4 double mutant (DDY4 strain), vector pFL61
T1 sequence (Q9AY27 1-682): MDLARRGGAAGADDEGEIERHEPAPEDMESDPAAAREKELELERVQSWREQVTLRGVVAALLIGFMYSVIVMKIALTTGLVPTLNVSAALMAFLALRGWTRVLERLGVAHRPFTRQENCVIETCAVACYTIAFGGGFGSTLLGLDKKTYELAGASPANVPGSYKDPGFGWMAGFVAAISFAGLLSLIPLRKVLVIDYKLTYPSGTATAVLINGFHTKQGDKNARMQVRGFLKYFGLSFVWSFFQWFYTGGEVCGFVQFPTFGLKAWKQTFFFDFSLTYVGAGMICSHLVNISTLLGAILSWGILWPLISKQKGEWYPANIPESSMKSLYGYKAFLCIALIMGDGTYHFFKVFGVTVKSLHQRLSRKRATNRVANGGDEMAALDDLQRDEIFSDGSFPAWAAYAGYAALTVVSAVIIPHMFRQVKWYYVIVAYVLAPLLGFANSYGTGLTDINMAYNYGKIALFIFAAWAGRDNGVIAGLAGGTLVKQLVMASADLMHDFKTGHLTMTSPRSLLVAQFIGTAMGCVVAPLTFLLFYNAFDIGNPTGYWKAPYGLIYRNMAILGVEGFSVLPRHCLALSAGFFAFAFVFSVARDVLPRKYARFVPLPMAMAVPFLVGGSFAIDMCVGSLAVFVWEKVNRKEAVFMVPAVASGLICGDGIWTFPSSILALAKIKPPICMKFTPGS
Text: as §1
as §2, with “inserted. […]” for “inserted.”

HvYS1 [2] = assay: Electrophysiological activity (voltage clamp) in HvYS1-expressing Xenopus oocyte cells; assay type: cell-based, barley (Hordeum vulgare L.); conditions: final concentration of 50 μM, fixed voltage of −60 mV; compared with other mugineic acid-metal complexes and nicotianamine Fe(II) complex
Text: The activity power for selectively absorbing mugineic acid-iron complex may be also confirmed by observing cell membrane voltage changes using Xenopus oocyte cells. The voltage change of the cell membrane may be obtained by directly measuring the voltage difference between the inside and outside of the cell membrane by, for example, a membrane voltage clamp method, wherein the voltage change of the oocyte cell membrane occurs in accordance with the absorption of mugineic acid-iron complex via the transporter protein expressed in the oocyte cell after adding a solution containing mugineic acid-iron complex to the oocyte cell into which the transporter gene of the invention has been introduced. […]
Subsequently, the inventors have formed mugineic acid complexes of copper, zinc, nickel, manganese, and cobalt as substrates other than Fe(III).MA as in the case of iron in order to determine substrate selectivity, if any, of HvYS1 protein. The oocyte cells in which HvYS1 is expressed were set in a chamber filled with the ND-96 solution, and electrophysiological activity was measured after spraying 10 μL of each 5 mM substrate (final concentration of 50 μM). […] ORIGIN 6.1 software (by Microcal Software Co.) was used for programming and storage of voltage, and analysis of the recorded and stored data. […]
Target sequence in this assay (as listed by the source): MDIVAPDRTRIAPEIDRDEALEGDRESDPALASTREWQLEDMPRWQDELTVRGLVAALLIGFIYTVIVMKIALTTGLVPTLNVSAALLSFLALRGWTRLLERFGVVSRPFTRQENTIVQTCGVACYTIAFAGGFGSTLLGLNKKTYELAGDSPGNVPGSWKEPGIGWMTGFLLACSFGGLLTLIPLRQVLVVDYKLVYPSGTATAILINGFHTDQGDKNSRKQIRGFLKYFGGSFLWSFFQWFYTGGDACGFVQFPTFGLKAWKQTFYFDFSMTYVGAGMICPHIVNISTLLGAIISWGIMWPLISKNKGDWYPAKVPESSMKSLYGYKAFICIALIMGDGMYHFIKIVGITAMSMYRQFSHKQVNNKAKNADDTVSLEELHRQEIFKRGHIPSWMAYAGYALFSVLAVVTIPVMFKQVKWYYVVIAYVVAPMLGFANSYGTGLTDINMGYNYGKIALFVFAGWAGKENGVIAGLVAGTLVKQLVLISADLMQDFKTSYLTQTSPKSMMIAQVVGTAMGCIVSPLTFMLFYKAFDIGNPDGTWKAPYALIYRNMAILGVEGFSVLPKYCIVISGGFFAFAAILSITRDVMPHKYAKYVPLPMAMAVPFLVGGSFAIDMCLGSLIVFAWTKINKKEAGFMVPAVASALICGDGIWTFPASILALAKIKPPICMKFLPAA

Compound: [Cl][Fe][Cl] [FeCl2]
- growth of DDY4 strain expressing HvYS1 with the substance as sole iron source (HvYS1 [1]; 10 μM in minimum media -Ura): did not grow

Compound: [Cl][Fe]([Cl])[Cl] [FeCl3]
- growth of DDY4 strain expressing HvYS1 with the substance as sole iron source (HvYS1 [1]; 10 μM in minimum media -Ura): did not grow

Compound: citric acid-iron complex (iron-ammonium citrate complex) [Fe(III).citrate]
- growth of DDY4 strain expressing HvYS1 with the substance as sole iron source (HvYS1 [1]; 50 μM in minimum media -Ura): did not grow

Compound: mugineic acid-iron(III) complex [Fe(III).MA]
- transport of the iron complex by ZmYS1 (ZmYS1): transports
- voltage change in HvYS1-expressing oocyte cells (HvYS1 [2]): overwhelmingly strong voltage change
- growth of DDY4 strain expressing HvYS1 in the presence of BPDS (HvYS1 [1]; 10 μM Fe(III).MA plus 10 μM BPDS (Fe(II) chelating agent)): grew
- growth of DDY4 strain expressing HvYS1 with the substance as sole iron source (HvYS1 [1]; 10 μM in minimum media -Ura): grew at the same level as DDY4 strain expressing ZmYS1

Compound: nicotianamine-iron complex [Fe(II).NA]
- transport of the iron complex by ZmYS1 (ZmYS1): transports
- growth of DDY4 strain expressing HvYS1 with the substance as sole iron source (HvYS1 [1]; 10 μM in minimum media -Ura): does not absorb Fe(II).NA, or growth was strongly inhibited
